According to patent US8124361B2, “Methods of screening for sweet taste modulators” (Givaudan SA, priority 2006, dated 2012):

Tests used:
[1] = tested on: sweet sensitive panelists; assay: Ranking test of sweetness isointensity (R-index), sensory panel; assay type: in vivo, human
Method: (§1) The sensory evaluation was conducted using a ranking method. Samples at ambient temperature were randomly presented in 15 ml blind aliquots (unidentifiable by panelists). Panels consisted of 10 sweet sensitive subjects and samples were presented in 3 replications over 1 session. After tasting each sample, the mouth was rinsed thoroughly with water at ambient temperature prior to tasting the next sample. […] They were asked to rank the samples from low to high with respect to perceived sweet taste.
as §1, with “taste. […] From ranking-style sensory tests, a matrix of responses (see table X below) is constructed such that each cell contains the number of times a given sample was ranked at a particular location.” for “taste.”
Essentially, the R-index is a measure of difference between two samples. The R-index has a chance level of detection of 50%. […] The critical value is the statistically relevant value that the derived R-index must deviate from (i.e greater or less than) in order to be considered significant.

[2] = tested on: sweet sensitive panelists; assay: Forced choice test of sweetness versus sucrose, sensory panel; assay type: in vivo, human; conditions: 1% sucrose, comparison with 60 ppm swingle extract; highest imaginable sweetness rates as 10
Method: A forced choice sensory evaluation of […] extract as a sweetener was performed as described in example 13 (see also for forced choice method, O'Mahony, 1992, J. Sens. Stud., 7:1-47), subject to the following modifications: […]

[3] = 0.5% sucrose in 1700 ppm cyclamate vs 1700 ppm cyclamate
[4] = 0.5% sucrose in 1700 ppm cyclamate vs 1900 ppm cyclamate
[5] = 0.5% sucrose in 1700 ppm cyclamate vs 2100 ppm cyclamate
[6] = 0.5% sucrose in 1700 ppm cyclamate vs 2300 ppm cyclamate
[7] = 0.5% sucrose in 1700 ppm cyclamate vs 2500 ppm cyclamate
[8] = 0.5% sucrose in aqueous 600 ppm p-ethoxybenzaldehyde vs 600 ppm p-ethoxybenzaldehyde
[9] = 0.5% sucrose in aqueous 600 ppm p-ethoxybenzaldehyde vs 700 ppm p-ethoxybenzaldehyde

In the case of `OC[C@H]1O[C@@](CO)(O[C@H]2O[C@H](CO)[C@@H](O)[C@H](O)[C@H]2O)[C@@H](O)[C@@H]1O` [sucrose, α-D-glucopyranosyl-(1→2)-β-D-fructofaranose], the “cyclamate equivalent in sweetness added” value ([1]; 0.5% sucrose in 1700 ppm cyclamate) is reported as 200 ppm cyclamate, the R-index [1, 3] is reported as 85% and the sucrose sample sweetness [1, 3] is reported as “sweeter”. The R-index [1, 4] was 60%, the sucrose sample sweetness [1, 4] was “isosweet” and the R-index [1, 5] was 21%. The sucrose sample sweetness [1, 5] was “less sweet”, the R-index [1, 6] was 7% and the sucrose sample sweetness [1, 6] was “less sweet”. For the same molecule, the R-index [1, 7] was 4%, the sucrose sample sweetness [1, 7] was “less sweet” and the p-ethoxybenzaldehyde isointensity ([1]; 0.5% sucrose in aqueous 600 ppm p-ethoxybenzaldehyde) was 700 ppm p-ethoxybenzaldehyde. For the same molecule, the R-index [1, 8] was 68%, the mixture sample sweetness [1, 8] was “sweeter” and the R-index [1, 9] was 59%. For the same molecule, the mixture sample sweetness [1, 9] was “isosweet”, the cyclamate isointensity ([1]; 1700 ppm cyclamate+0.5% sucrose) was 1900 ppm cyclamate and the sweetness intensity rating [2] was 0.72.
